Legend:
total micro-organism = assay: Total microbial (plate) count of spent brewer's / wet distiller's grains stored at ambient temperature; assay type: cell-based; conditions: wet distiller's grains
Excerpt: Samples of spent brewer's grains were drawn from the discharge line of a brewery in South Africa. The samples, packed in dry ice in a cold box, were transported over a distance of approximately 40 kilometres to a laboratory. At the laboratory, the samples were thoroughly mixed and initially split into a first portion (Portion 1) and a second portion (Portion 2). The second portion was about twice the size of the first. Portion 1 was left untreated. Material produced from Portion 1 and Portion 2 is designated below using the code “AR” (as received).
Portion 2 was placed on a clean, standard, laboratory screen deck with 1.4 mm apertures supported from below. As much water as possible was manually squeezed out with a clean flat plastic disc and the sample was then manually remixed after the squeezing. The squeezed material was then split into a third portion (Portion 3) and a fourth portion (Portion 4) of approximately the same size. Material produced from Portion 3 and Portion 4 is designated below using the code “SO” (squeezed).
Portion 4 was added to a high speed kitchen food-shredder and shredded for about two minutes. The shredded material was then returned to the 1.4 mm aperture screen and squeezed again, as described above, and manually remixed again after the second squeezing to produce a shredded and squeezed portion (Portion 5). Material produced from Portion 5 is designated below using the code “SH” (shredded).
Samples of Portion 1 (“AR”), Portion 3 (“SO”) and Portion 5 (“SH”) were then delivered to a microbiological testing facility about 15 kilometres from the treatment laboratory. Each was tested for initial total microbial, yeast and mould counts, respectively.
Separate untreated samples were similarly stored under insect-proof screens at ambient temperature for seven days (as shown in Tables 1 and 2). During the trial period the ambient temperature ranged from 11 to 33 degrees C.
After exposure to the environment for seven days, all of the samples were tested at a South African National Accreditation System (SANAS) approved microbiological testing facility. Each was tested for total micro-organism, yeast and mould counts to determine the affect of the various treatments.
Samples of spent brewer's grains were drawn from the discharge line of a brewery in South Africa.
At the laboratory, the samples were thoroughly mixed and initially split into a first portion (Portion 1) and a second portion (Portion 2). Portion 1 was left untreated. A sample of Portion 1, was delivered immediately to a microbiological testing facility about 15 kilometres away from the treatment laboratory and was tested for initial total microbial, yeast and mould counts, respectively.
Samples from Portion 2 were subjected to treatment with varying amounts of a powdered, commercially-available calcium oxide containing approximately 94% calcium oxide (CaO) as shown in Table 32. The treatments varied from 2.5 to 10% (w/w) calcium oxide addition. The samples were stored in batches (according to the calcium oxide treatment) under insect-proof screens at ambient temperature for fifty six days. […] During the trial period the ambient temperature ranged from 10 to 30 degrees C. As this period was the southern hemisphere spring/early summer, the humidity as well as ambient temperatures varied widely.
Samples from each treatment were drawn every seven days. No further calcium oxide treatment or agitation took place after the initial mix. In each case the entire sample was isolated and delivered to the microbiological testing facility.
(§1) In this trial the same source of wet distiller's grains (again with now partial water removal prior to treatment) was treated.
as §1

yeast = assay: Yeast count of spent brewer's / wet distiller's grains stored at ambient temperature; assay type: cell-based

SMILES: [O]=[Ca] [calcium oxide]
- Total plate count (total micro-organism; 5.0% CaO (w/w), day 7): 660 cfu/gram
- Total plate count (total micro-organism; 5.0% CaO (w/w), day 14): 82,000 cfu/gram
- Total plate count (total micro-organism; 5.0% CaO (w/w), day 21): 180 cfu/gram
- Total plate count (total micro-organism; 5.0% CaO (w/w), day 42): 20 cfu/gram
- Total plate count (total micro-organism; 5.0% CaO (w/w), day 49): 50 cfu/gram
- Total plate count (total micro-organism; 5.0% CaO (w/w), day 56): 3,400 cfu/gram
- Total plate count (total micro-organism; 10.0% CaO (w/w), day 7): 740 cfu/gram
- Total plate count (total micro-organism; 10.0% CaO (w/w), day 14): 150 cfu/gram
- Total plate count (total micro-organism; 10.0% CaO (w/w), day 21): 100 cfu/gram
- Total plate count (total micro-organism; 10.0% CaO (w/w), day 42): 130 cfu/gram
- Total plate count (total micro-organism; 10.0% CaO (w/w), day 49): 80 cfu/gram
- Total plate count (total micro-organism; 10.0% CaO (w/w), day 56): 460 cfu/gram
- Yeast Count (yeast; 5% CaO (w/w) powder, week 1): 10 cfu/gram
- Yeast Count (yeast; 5% CaO (w/w) powder, week 2): 10 cfu/gram
- Yeast Count (yeast; 5% CaO (w/w) powder, week 3): 113 cfu/gram
- Yeast Count (yeast; 5% CaO (w/w) powder, week 5): 10 cfu/gram
- Yeast Count (yeast; wet distiller's grains, 0.5% CaO (w/w), day 1): <10 cfu/gram
- Yeast Count (yeast; wet distiller's grains, 0.5% CaO (w/w), day 3): <10 cfu/gram
- Yeast Count (yeast; wet distiller's grains, 0.5% CaO (w/w), day 6): 40000 cfu/gram
- Yeast Count (yeast; wet distiller's grains, 0.5% CaO (w/w), day 8): <10 cfu/gram
- Yeast Count (yeast; wet distiller's grains, 1.0% CaO (w/w), day 2): <10 cfu/gram
- Yeast Count (yeast; wet distiller's grains, 1.0% CaO (w/w), day 3): <10 cfu/gram
- Yeast Count (yeast; wet distiller's grains, 1.0% CaO (w/w), day 6): <10 cfu/gram
- Yeast Count (yeast; wet distiller's grains, 1.0% CaO (w/w), day 8): <10 cfu/gram
- Yeast Count (yeast; wet distiller's grains, 1.0% CaO (w/w), day 10): 20 cfu/gram
- Yeast Count (yeast; wet distiller's grains, 1.5% CaO (w/w), day 1): <10 cfu/gram
- Yeast Count (yeast; wet distiller's grains, 1.5% CaO (w/w), day 2): <10 cfu/gram
- Yeast Count (yeast; wet distiller's grains, 1.5% CaO (w/w), day 3): <10 cfu/gram
- Yeast Count (yeast; wet distiller's grains, 1.5% CaO (w/w), day 6): <10 cfu/gram
- Yeast Count (yeast; wet distiller's grains, 1.5% CaO (w/w), day 8): <10 cfu/gram
- Yeast Count (yeast; wet distiller's grains, 2.0% CaO (w/w), day 1): <10 cfu/gram
- Yeast Count (yeast; wet distiller's grains, 2.0% CaO (w/w), day 3): <10 cfu/gram
- Yeast Count (yeast; wet distiller's grains, 2.0% CaO (w/w), day 6): <10 cfu/gram
- Yeast Count (yeast; wet distiller's grains, 2.0% CaO (w/w), day 8): <10 cfu/gram
- Yeast Count (yeast; wet distiller's grains, 2.0% CaO (w/w), day 10): <10 cfu/gram
- Yeast Count (yeast; wet distiller's grains, 2.5% CaO (w/w), day 1): <10 cfu/gram
- Yeast Count (yeast; wet distiller's grains, 2.5% CaO (w/w), day 2): <10 cfu/gram
- Yeast Count (yeast; wet distiller's grains, 2.5% CaO (w/w), day 3): <10 cfu/gram
- Yeast Count (yeast; wet distiller's grains, 2.5% CaO (w/w), day 6): <10 cfu/gram
- Yeast Count (yeast; wet distiller's grains, 2.5% CaO (w/w), day 7): 10 cfu/gram
- Yeast Count (yeast; wet distiller's grains, 2.5% CaO (w/w), day 8): <10 cfu/gram
- Yeast Count (yeast; wet distiller's grains, 2.5% CaO (w/w), day 10): <10 cfu/gram
- Yeast Count (yeast; wet distiller's grains, 2.5% CaO (w/w), day 21): 53,000 cfu/gram
- Yeast Count (yeast; wet distiller's grains, 2.5% CaO (w/w), day 56): 115,000 cfu/gram
- Yeast Count (yeast; wet distiller's grains, 5.0% CaO (w/w), day 7): 10 cfu/gram
- Yeast Count (yeast; wet distiller's grains, 5.0% CaO (w/w), day 14): 10 cfu/gram
- Yeast Count (yeast; wet distiller's grains, 5.0% CaO (w/w), day 42): 10 cfu/gram
- Yeast Count (yeast; wet distiller's grains, 5.0% CaO (w/w), day 49): 20 cfu/gram
- Yeast Count (yeast; wet distiller's grains, 5.0% CaO (w/w), day 56): 20 cfu/gram
- Yeast Count (yeast; wet distiller's grains, 10.0% CaO (w/w), day 7): 10 cfu/gram
- Yeast Count (yeast; wet distiller's grains, 10.0% CaO (w/w), day 21): 10 cfu/gram
- Yeast Count (yeast; wet distiller's grains, 10.0% CaO (w/w), day 42): 10 cfu/gram
- Yeast Count (yeast; wet distiller's grains, 10.0% CaO (w/w), day 49): 10 cfu/gram
- Yeast Count (yeast; wet distiller's grains, 10.0% CaO (w/w), day 56): 10 cfu/gram

Reference: patent publication US20120009280A1, “METHOD OF REDUCING THE RATE OF DEGRADATION OF A BIOLOGICAL MATERIAL” (Bio-Energy Ingredients Limited, priority 2009, published 2012)
